SMILES strings stand for the structures.

This experiment can be described thus: Inhibition of Pseudomonas aeruginosa LecB.
For orientation: IC50 means the concentration that inhibits the measured activity by half. Low readings indicate inhibition by little substance, high ones a need for much substance. Regarding `CC[C@H](C)[C@H](NC(=O)[C@H](Cc1cnc[nH]1)NCCCC[C@H](NC(=O)[C@@H](NC(=O)[C@H](CCCCN)NC(=O)[C@H](Cc1ccccc1)NC(=O)[C@H](CCCCNC(=O)[C@H](CC(C)C)NC(=O)[C@@H]1CCCN1C(=O)[C@@H](N)CCCCNC(=O)C[C@@H]1O[C@@H](C)[C@@H](O)[C@@H](O)[C@@H]1O)NC(=O)[C@H](CC(C)C)NC(=O)[C@@H]1CCCN1C(=O)[C@@H](N)CCCCNC(=O)C[C@@H]1O[C@@H](C)[C@@H](O)[C@@H](O)[C@@H]1O)[C@@H](C)CC)C(=O)N[C@H](C(=O)N[C@@H](CCCCN)C(=O)N[C@@H](Cc1ccccc1)C(=O)N[C@@H](CCCCN[C@@H](CC(C)C)C(=O)N1CCC[C@H]1C(=O)N[C@@H](CCCCNC(=O)C[C@@H]1O[C@@H](C)[C@@H](C)[C@@H](C)[C@@H]1O)C(=O)O)C(=O)N[C@@H](CC(C)C)C(=O)N1CCC[C@H]1C(=O)N[C@@H](CCCCNC(=O)C[C@@H]1O[C@@H](C)[C@@H](O)[C@@H](O)[C@@H]1O)C(=O)O)[C@@H](C)CC)C(N)=O`, half-maximal inhibition (IC50) required 0.14 µM.

`CO[C@H]1O[C@H]([C@@H](O)CNS(=O)(=O)c2c(C)cc(C)cc2C)[C@@H](O)[C@H](O)[C@@H]1O`: the IC50 amounted to 100 µM.

In turn, `CCCCCCCCO[C@@H]1O[C@H](CO)[C@H](O[C@@H]2O[C@H](CO)[C@H](O)[C@H](O)[C@H]2NC(C)=O)[C@H](O)[C@H]1OCCC` yielded an IC50 of 8 µM.

The values above are taken from BindingDB's records for PubMed 26804741 (Helmholtz Institute For Pharmaceutical Research Saarland …, 2016).
